Data set [1] is described as follows: In vivo pharmacokinetics, oral administration. The note with it: mice. On the set-up: species or system C57BL/6 mice. The method, then: Healthy C57BL/6 mice each weighing approximately 25 g were maintained at the University of Cape Town animal facility. Mice were housed in 27 × 21 × 28 cm cages (n = 3) under controlled environmental conditions at 22 ± 2°C, humidity of 55 ± 15% and a 12-hour light/dark cycle. Food and water were available ad libitum. Mice were acclimatised to the experimental environment for 4–5 days prior to initiating the experiments. RMB005, −059 and −060 were prepared in an aqueous solution of HPMC containing 0.2% Tween 80. The weighed compound was sonicated and vortexed to obtain a homogenous suspension. Oral dosing of 20 mg/kg was achieved via oral gavage. The total volume per administration was 200 μL. Blood samples were collected post-dose in lithium heparin microvials via tail bleeding at predetermined intervals at 0.5, 1, 3, 5, 8, 10, and 24 h. Samples were gently vortexed and stored at −80°C until analysis. A quantitative LC-MS/MS assay was used to determine whole-blood concentrations of RMB005, −059 and −060. Whole blood samples (20 μL) were treated with 100 μL ice cold acetonitrile containing the compound RMB073 used previously for determination of whole blood concentrations in analysis of TB-active compounds, as internal standard (200 ng/ml) ([Tanner et al., 2019]). The mixture was vortexed vigorously for 1 min, and 5 µL of the supernatant were injected onto the analytical column following centrifugation (5,590 g for 5 min). Gradient elution was carried out using a Gemini NX-C18 analytical column (5 μm, 2.1 mm × 50 mm). The aqueous mobile phase consisted of 5 mm ammonium acetate with 0.1% acetic acid in deionised water, while the organic phase consisted of 0.1% acetic acid in acetonitrile. A Shimadzu HPLC and reverse phase Gemini NX-C18 column coupled to an AB Sciex 3200 Q TRAP MS was operated at unit resolution in the multiple reaction monitoring (MRM) mode. […] The calibration standards ranged from 2 ng/mL to 3,000 ng/mL for RMB005, and 2 ng/mL to 4,000 ng/mL for RMB059, −060 and DQ. Drug concentration versus time plots for each compound were used to determine maximal drug concentration C max, time T max to reach C max, elimination half-life t 1/2 and the area under the concentration-time curve from time zero to infinity, AUC0-inf. From these values the following PK parameters—clearance CL, volume of distribution (Vd) and oral bioavailability (BA) were determined using the non-compartmental analysis Microsoft Excel Add-In PKSolver ([Zhang et al., 2010]).

Data set [2] in a line: Metabolic stability in human liver microsomes. It is filed as in vitro ADME. How it is done: A 5-point metabolic stability assay in human and mouse liver microsomes were performed in duplicate in 96-well plates. Stock solution of RMB005, −059 and 060 prepared in DMSO were individually incubated at 37°C in mouse and pooled human liver microsomes (0.4 mg/mL). An aliquot was removed at 0 min and quenched with ice cold acetonitrile containing the internal standard carbamazepine (0.1 μM). The cofactor NADPH was added, and the reactions were subsequently stopped at time points 5, 10, 30, and 60 min by removal of an aliquot and quenching with ice cold acetonitrile containing the internal standard. The supernatant of all samples were analysed via LC-MS/MS analysis (reverse phase Gemini NX-C18 column and Shimadzu HPLC and AB Sciex 3200 Q TRAP MS). Calculation of in vitro t1/2, intrinsic clearance rate (CLint) and predicted in vivo clearance (CLH) was carried out using the following equations ([Obach 1999]). CLintClint= 0.693/t1/2(min) ×Volume of incubation (μL)/microsomal protein (μg) Where t1/2 is calculated in minutes.
Predicted in vivo CLH CLH=Q × fu(plasma)×CLint/fu(mic)/Q+ fu(plasma)× CLint/fu(mic) Where Q is the hepatic blood flow of mouse (90 mL/min/kg) or human (20.7 mL/min/kg). Fu(plasma) is the unbound drug fraction in the plasma and fu(mic) is the unbound fraction in the microsomes.
The equation below was used in the case of RMB059 and -060, where protein-binding data were not available. CLH=Q × CLint/Q+ CLint

“And” between values parts separate entries of the source, which are not always exact repeats. Equal values may be shown once.

As for `CCCCCCCCCCOc1cc2c(=O)c(C(=O)NCCOCCO)c[nH]c2cc1OCC` [RMB005], the time to peak (Tmax) in data set [1] (C57BL/6, mouse, whole blood, po, 20 mg/kg, po 20 mg/kg, dosed compound measured) was about 42 min. For the same compound, the Cmax in data set [1] (C57BL/6, mouse, po 20 mg/kg, whole blood, dosed compound measured, read-out: Cmax) came out at 490 ± 20 nM. In data set [1] (po 20 mg/kg vs iv, 20 mg/kg), the BA was 4% and 4 ± 0.3%. The “AUC0-∞” value in data set [1] (po 20 mg/kg, whole blood, dosed compound measured, 20 mg/kg) was 59 µmol·min/L and 59 ± 2 µmol·min/L. Moreover, the CLint scaled in data set [2] (human, pooled liver microsomes, calculated from t1/2 in HLM, read-out: In vitro CLint HLM) was 4 mL/min/kg. The half-life in data set [2] (pooled liver microsomes, human liver microsomes, NADPH, read-out: Degradation half-life HLM) is over 150 min. Besides, the “Estimated in vivo CLH HLM” value in data set [2] (protein binding data included) is given as 12.6 mL/min/kg.

These data come from PMC9450014, “The evaluation of ADME and pharmacokinetic properties of decoquinate derivatives for the treatment of malaria” (Frontiers in Pharmacology, 2022).
